{"source": "the supplement of paper PMC10307832", "test_in_all_cases": "relative viability (nuclei count vs DMSO), 5 days (fraction); higher = more cells survive", "key": {"[1]": {"compound": "CCN1CCC(CC1)N2C=C(N=N2)CNC3=CC4=C(C(=CN=C4C(=C3)Cl)C#N)NC5=CC(=C(C=C5)F)Cl [KIN001-266] + CCNC(=O)c1noc(-c2cc(C(C)C)c(O)cc2O)c1-c1ccc(CN2CCOCC2)cc1 [Luminespib] (partner 0.01 µM)", "summary_of_the_method": "(§1)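 One day after seeding in 1536-well plates, lung cancer cell lines were dosed by pin tool. Dosing was either single-drug or a fixed anchor-drug dose plus five library-drug doses (not always all listed) in √10 steps. After 5 days, nuclei were stained in one fix-and-stain step and counted on 4× images, and relative viability is the nuclei count of treated wells over that of vehicle wells, given as the median of duplicate plates.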"}, "[2]": {"compound": "CCN1CCC(CC1)N2C=C(N=N2)CNC3=CC4=C(C(=CN=C4C(=C3)Cl)C#N)NC5=CC(=C(C=C5)F)Cl [KIN001-266] + COc1cc2c(Oc3ccc(NC(=O)C4(C(=O)Nc5ccc(F)cc5)CC4)cc3F)ccnc2cc1OCCCN1CCOCC1 [Foretinib] (partner 0.25 µM)", "summary_of_the_method": "as §1"}, "[3]": {"compound": "CCN1CCC(CC1)N2C=C(N=N2)CNC3=CC4=C(C(=CN=C4C(=C3)Cl)C#N)NC5=CC(=C(C=C5)F)Cl [KIN001-266] + CC1(C)CCC(c2ccc(Cl)cc2)=C(CN2CCN(c3ccc(C(=O)NS(=O)(=O)c4ccc(N[C@H](CCN5CCOCC5)CSc5ccccc5)c(S(=O)(=O)C(F)(F)F)c4)cc3)CC2)C1 [Navitoclax] (partner 0.5 µM)", "summary_of_the_method": "as §1"}, "[4]": {"compound": "CCN1CCC(CC1)N2C=C(N=N2)CNC3=CC4=C(C(=CN=C4C(=C3)Cl)C#N)NC5=CC(=C(C=C5)F)Cl [KIN001-266] + C[C@]1(O)C[C@@H](c2nc(-c3ccc4ccc(-c5ccccc5)nc4c3)c3c(N)nccn32)C1 [Linsitinib] (partner 1 µM)", "summary_of_the_method": "as §1"}}}
{"cell line": "RERF-LC-KJ", "values": [{"measurement": "relative viability", "setting": "[1]; first compound 0.08 µM", "result": 1.31}, {"measurement": "relative viability", "setting": "[1]; first compound 0.253 µM", "result": 1.23}, {"measurement": "relative viability", "setting": "[1]; first compound 0.8 µM", "result": 1.14}, {"measurement": "relative viability", "setting": "[1]; first compound 2.53 µM", "result": 1.16}, {"measurement": "relative viability", "setting": "[1]; first compound 8 µM", "result": 0.739}, {"measurement": "relative viability", "setting": "[2]; first compound 0.08 µM", "result": 0.882}, {"measurement": "relative viability", "setting": "[2]; first compound 0.253 µM", "result": 0.873}, {"measurement": "relative viability", "setting": "[2]; first compound 0.8 µM", "result": 0.837}, {"measurement": "relative viability", "setting": "[2]; first compound 2.53 µM", "result": 0.837}, {"measurement": "relative viability", "setting": "[2]; first compound 8 µM", "result": 0.757}, {"measurement": "relative viability", "setting": "[3]; first compound 0.08 µM", "result": 0.989}, {"measurement": "relative viability", "setting": "[3]; first compound 0.253 µM", "result": 0.81}, {"measurement": "relative viability", "setting": "[3]; first compound 0.8 µM", "result": 0.937}, {"measurement": "relative viability", "setting": "[3]; first compound 2.53 µM", "result": 0.849}, {"measurement": "relative viability", "setting": "[3]; first compound 8 µM", "result": 0.651}, {"measurement": "relative viability", "setting": "[4]; first compound 0.08 µM", "result": 0.947}, {"measurement": "relative viability", "setting": "[4]; first compound 0.253 µM", "result": 0.857}, {"measurement": "relative viability", "setting": "[4]; first compound 0.8 µM", "result": 0.917}, {"measurement": "relative viability", "setting": "[4]; first compound 2.53 µM", "result": 0.846}, {"measurement": "relative viability", "setting": "[4]; first compound 8 µM", "result": 0.656}]}
{"cell line": "SK-LU-1", "values": [{"measurement": "relative viability", "setting": "[1]; first compound 0.08 µM", "result": 0.206}, {"measurement": "relative viability", "setting": "[1]; first compound 0.253 µM", "result": 0.215}, {"measurement": "relative viability", "setting": "[1]; first compound 0.8 µM", "result": 0.223}, {"measurement": "relative viability", "setting": "[1]; first compound 2.53 µM", "result": 0.22}, {"measurement": "relative viability", "setting": "[1]; first compound 8 µM", "result": 0.189}, {"measurement": "relative viability", "setting": "[2]; first compound 0.08 µM", "result": 0.844}, {"measurement": "relative viability", "setting": "[2]; first compound 0.253 µM", "result": 0.824}, {"measurement": "relative viability", "setting": "[2]; first compound 0.8 µM", "result": 0.84}, {"measurement": "relative viability", "setting": "[2]; first compound 2.53 µM", "result": 0.814}, {"measurement": "relative viability", "setting": "[2]; first compound 8 µM", "result": 0.486}, {"measurement": "relative viability", "setting": "[3]; first compound 0.08 µM", "result": 0.677}, {"measurement": "relative viability", "setting": "[3]; first compound 0.253 µM", "result": 0.465}, {"measurement": "relative viability", "setting": "[3]; first compound 0.8 µM", "result": 1.11}, {"measurement": "relative viability", "setting": "[3]; first compound 2.53 µM", "result": 0.839}, {"measurement": "relative viability", "setting": "[3]; first compound 8 µM", "result": 0.512}, {"measurement": "relative viability", "setting": "[4]; first compound 0.08 µM", "result": 1.29}, {"measurement": "relative viability", "setting": "[4]; first compound 0.253 µM", "result": 0.937}, {"measurement": "relative viability", "setting": "[4]; first compound 0.8 µM", "result": 1.14}, {"measurement": "relative viability", "setting": "[4]; first compound 2.53 µM", "result": 1.07}, {"measurement": "relative viability", "setting": "[4]; first compound 8 µM", "result": 0.639}]}
{"cell line": "SK-MES-1", "values": [{"measurement": "relative viability", "setting": "[1]; first compound 0.08 µM", "result": 0.783}, {"measurement": "relative viability", "setting": "[1]; first compound 0.253 µM", "result": 0.779}, {"measurement": "relative viability", "setting": "[1]; first compound 0.8 µM", "result": 1.06}, {"measurement": "relative viability", "setting": "[1]; first compound 2.53 µM", "result": 0.739}, {"measurement": "relative viability", "setting": "[1]; first compound 8 µM", "result": 0.427}, {"measurement": "relative viability", "setting": "[2]; first compound 0.08 µM", "result": 0.845}, {"measurement": "relative viability", "setting": "[2]; first compound 0.253 µM", "result": 0.884}, {"measurement": "relative viability", "setting": "[2]; first compound 0.8 µM", "result": 0.828}, {"measurement": "relative viability", "setting": "[2]; first compound 2.53 µM", "result": 0.885}, {"measurement": "relative viability", "setting": "[2]; first compound 8 µM", "result": 0.828}, {"measurement": "relative viability", "setting": "[3]; first compound 0.08 µM", "result": 1.25}, {"measurement": "relative viability", "setting": "[3]; first compound 0.253 µM", "result": 1.17}, {"measurement": "relative viability", "setting": "[3]; first compound 0.8 µM", "result": 1.11}, {"measurement": "relative viability", "setting": "[3]; first compound 2.53 µM", "result": 1.04}, {"measurement": "relative viability", "setting": "[3]; first compound 8 µM", "result": 0.858}, {"measurement": "relative viability", "setting": "[4]; first compound 0.08 µM", "result": 1.17}, {"measurement": "relative viability", "setting": "[4]; first compound 0.253 µM", "result": 1.08}, {"measurement": "relative viability", "setting": "[4]; first compound 0.8 µM", "result": 1.01}, {"measurement": "relative viability", "setting": "[4]; first compound 2.53 µM", "result": 1}, {"measurement": "relative viability", "setting": "[4]; first compound 8 µM", "result": 0.902}]}
{"cell line": "SW 1573", "values": [{"measurement": "relative viability", "setting": "[1]; first compound 0.08 µM", "result": 0.268}, {"measurement": "relative viability", "setting": "[1]; first compound 0.253 µM", "result": 0.272}, {"measurement": "relative viability", "setting": "[1]; first compound 0.8 µM", "result": 0.195}, {"measurement": "relative viability", "setting": "[1]; first compound 2.53 µM", "result": 0.238}, {"measurement": "relative viability", "setting": "[1]; first compound 8 µM", "result": 0.211}, {"measurement": "relative viability", "setting": "[2]; first compound 0.08 µM", "result": 0.989}, {"measurement": "relative viability", "setting": "[2]; first compound 0.253 µM", "result": 0.787}, {"measurement": "relative viability", "setting": "[2]; first compound 0.8 µM", "result": 1.02}, {"measurement": "relative viability", "setting": "[2]; first compound 2.53 µM", "result": 0.915}, {"measurement": "relative viability", "setting": "[2]; first compound 8 µM", "result": 0.855}, {"measurement": "relative viability", "setting": "[3]; first compound 0.08 µM", "result": 1.05}, {"measurement": "relative viability", "setting": "[3]; first compound 0.253 µM", "result": 1.05}, {"measurement": "relative viability", "setting": "[3]; first compound 0.8 µM", "result": 1.03}, {"measurement": "relative viability", "setting": "[3]; first compound 2.53 µM", "result": 0.91}, {"measurement": "relative viability", "setting": "[3]; first compound 8 µM", "result": 0.643}, {"measurement": "relative viability", "setting": "[4]; first compound 0.08 µM", "result": 0.844}, {"measurement": "relative viability", "setting": "[4]; first compound 0.253 µM", "result": 0.8}, {"measurement": "relative viability", "setting": "[4]; first compound 0.8 µM", "result": 0.72}, {"measurement": "relative viability", "setting": "[4]; first compound 2.53 µM", "result": 0.732}, {"measurement": "relative viability", "setting": "[4]; first compound 8 µM", "result": 0.619}]}
{"cell line": "UMC-11", "values": [{"measurement": "relative viability", "setting": "[1]; first compound 0.08 µM", "result": 0.986}, {"measurement": "relative viability", "setting": "[1]; first compound 0.253 µM", "result": 0.977}, {"measurement": "relative viability", "setting": "[1]; first compound 0.8 µM", "result": 1.03}, {"measurement": "relative viability", "setting": "[1]; first compound 2.53 µM", "result": 0.937}, {"measurement": "relative viability", "setting": "[1]; first compound 8 µM", "result": 0.449}, {"measurement": "relative viability", "setting": "[2]; first compound 0.08 µM", "result": 1.08}, {"measurement": "relative viability", "setting": "[2]; first compound 0.253 µM", "result": 1.07}, {"measurement": "relative viability", "setting": "[2]; first compound 0.8 µM", "result": 1.12}, {"measurement": "relative viability", "setting": "[2]; first compound 2.53 µM", "result": 0.945}, {"measurement": "relative viability", "setting": "[2]; first compound 8 µM", "result": 0.684}, {"measurement": "relative viability", "setting": "[3]; first compound 0.08 µM", "result": 0.3}, {"measurement": "relative viability", "setting": "[3]; first compound 0.253 µM", "result": 0.319}, {"measurement": "relative viability", "setting": "[3]; first compound 0.8 µM", "result": 0.38}, {"measurement": "relative viability", "setting": "[3]; first compound 2.53 µM", "result": 0.355}, {"measurement": "relative viability", "setting": "[3]; first compound 8 µM", "result": 0.278}, {"measurement": "relative viability", "setting": "[4]; first compound 0.08 µM", "result": 0.944}, {"measurement": "relative viability", "setting": "[4]; first compound 0.253 µM", "result": 1.01}, {"measurement": "relative viability", "setting": "[4]; first compound 0.8 µM", "result": 1.08}, {"measurement": "relative viability", "setting": "[4]; first compound 2.53 µM", "result": 0.981}, {"measurement": "relative viability", "setting": "[4]; first compound 8 µM", "result": 1.09}]}
